From patent US9988635B2, “Modulation of growth hormone receptor expression and insulin-like growth factor expression” (Antisense Therapeutics Limited, priority 2003, dated 2018)
Structures can show the parent of a compound that is named as a salt. In the oligonucleotide strings, read from the 5' end, every base follows the letter of its sugar. An asterisk marks phosphorothioate; unmarked linkages are phosphodiester. Other units and linkages are bracketed, terminal groups are in braces. A string of capitals states the bases alone. e = 2'-O-(2-methoxyethyl) (MOE); [5mC] = 5-methylcytosine; d = 2'-deoxy (DNA)

Tests used:
[1] = Body weight, body length, organ weights and food intake, 1 week pilot study; assay type: in vivo, mouse; settings: octreotide group
Description: Saline, antisense, mismatch control and octreotide samples were prepared, and coded for blinding. Animals were given a subcutaneous dose of saline every second day, and mismatch control or antisense with administration on days 0, 2, 4, 6. Animals were given twice daily doses of 25 μg octreotide. Animals were housed 4 per cage, for the duration of one week. They had access to a pre-determined quantity of standard mouse food and water at all times throughout the experiment. They were housed in a quiet, temperature- and humidity-maintained environment for the entirety of the study. At day 0 and before treatment on each day or second day, the animals had their body weight and food intake measured, enabling the correct dose of agent to be administered. The animals were monitored closely for any changes in fur, skin, eye, locomotion or other changes in behavior. No problems were observed. Every second day from day −7 to day 7 body weight and food intake were measured.
The serum remaining following the insulin-like growth factor-1 assay was isolated and stored at −80° C. The whole liver was removed rapidly for weighing and snap-frozen in labelled aluminum parcels by submersion in liquid-nitrogen. […]
This confirms published results of others. […] Weight was measured in two ways: weight trend (live animal), and final carcass weight. […]

[2] = dosed orally; cited from earlier work
[3] = test system: mouse growth hormone receptor mRNA; experiment: Inhibition of mouse growth hormone receptor mRNA levels in b.END cells, quantitative real-time PCR, incl. dose-response; assay type: cell-based; settings: averages from three experiments
Description: The mouse brain endothelial cell line b.END was obtained from Dr. Werner Risau at the Max Plank Instititute (Bad Nauheim, Germany). b.END cells were routinely cultured in DMEM, high glucose (Gibco/Life Technologies, Gaithersburg, Md.) supplemented with 10% fetal calf serum (Gibco/Life Technologies, Gaithersburg, Md.). Cells were routinely passaged by trypsinization and dilution when they reached 90% confluence. Cells were seeded into 96-well plates (Falcon-Primaria #3872) at a density of 3000 cells/well for use in RT-PCR analysis.
When cells reached 65-75% confluency, they were treated with oligonucleotide. For cells grown in 96-well plates, wells were washed once with 100 μL OPTI-MEM™-1 reduced-serum medium (Invitrogen Corporation, Carlsbad, Calif.) and then treated with 130 μL of OPTI-MEM™-1 containing 3.75 μg/mL LIPOFECTIN™ (Invitrogen Corporation, Carlsbad, Calif.) and the desired concentration of oligonucleotide. Cells are treated and data are obtained in triplicate. After 4-7 hours of treatment at 37° C., the medium was replaced with fresh medium. Cells were harvested 16-24 hours after oligonucleotide treatment.
Total RNA was isolated using an RNEASY 96™ kit and buffers purchased from Qiagen Inc. (Valencia, Calif.) following the manufacturer's recommended procedures. Briefly, for cells grown on 96-well plates, growth medium was removed from the cells and each well was washed with 200 μL cold PBS. 150 μL Buffer RLT was added to each well and the plate vigorously agitated for 20 seconds. 150 μL of 70% ethanol was then added to each well and the contents mixed by pipetting three times up and down. The samples were then transferred to the RNEASY 96™ well plate attached to a QIAVAC™ manifold fitted with a waste collection tray and attached to a vacuum source. Vacuum was applied for 1 minute. 500 μL of Buffer RW1 was added to each well of the RNEASY 96™ plate and incubated for 15 minutes and the vacuum was again applied for 1 minute. An additional 500 μL of Buffer RW1 was added to each well of the RNEASY 96™ plate and the vacuum was applied for 2 minutes. 1 mL of Buffer RPE was then added to each well of the RNEASY 96™ plate and the vacuum applied for a period of 90 seconds. The Buffer RPE wash was then repeated and the vacuum was applied for an additional 3 minutes. The plate was then removed from the QIAVAC™ manifold and blotted dry on paper towels. The plate was then re-attached to the QIAVAC™ manifold fitted with a collection tube rack containing 1.2 mL collection tubes. RNA was then eluted by pipetting 140 μL of RNAse free water into each well, incubating 1 minute, and then applying the vacuum for 3 minutes.
Quantitation of growth hormone receptor mRNA levels was accomplished by real-time quantitative PCR using the ABI PRISM™ 7600, 7700, or 7900 Sequence Detection System (PE-Applied Biosystems, Foster City, Calif.) according to manufacturer's instructions. This is a closed-tube, non-gel-based, fluorescence detection system which allows high-throughput quantitation of polymerase chain reaction (PCR) products in real-time. As opposed to standard PCR in which amplification products are quantitated after the PCR is completed, products in real-time quantitative PCR are quantitated as they accumulate. This is accomplished by including in the PCR reaction an oligonucleotide probe that anneals specifically between the forward and reverse PCR primers, and contains two fluorescent dyes. A reporter dye (e.g., FAM or JOE, obtained from either PE-Applied Biosystems, Foster City, Calif., Operon Technologies Inc., Alameda, Calif. or Integrated DNA Technologies Inc., Coralville, Iowa) is attached to the 5′ end of the probe and a quencher dye (e.g., TAMRA, obtained from either PE-Applied Biosystems, Foster City, Calif., Operon Technologies Inc., Alameda, Calif. or Integrated DNA Technologies Inc., Coralville, Iowa) is attached to the 3′ end of the probe. […]

serum IGF-I = experiment: Serum IGF-I, 2 week study in mice; assay type: in vivo, mouse; settings: 30 mg/kg; 2 weeks
Description: A two-week study was done in similar fashion to the one-week study in Example 18, this time using ISIS 227446 at doses of 3, 5, 10, 20 and 30 mg/kg. The mismatch control was given at the same doses. Mice were treated with antisense compound or saline every other day for 14 days.
P-values were determined by t-test.

| Molecule | % INHIB of mouse growth hormone receptor mRNA levels [3] [%] | also measured |
| --- | --- | --- |
| C[C@@H](O)[C@@H]1NC(=O)[C@H](CCCCN)NC(=O)[C@@H](Cc2c[nH]c3ccccc23)NC(=O)[C@H](Cc2ccccc2)NC(=O)[C@@H](NC(=O)[C@H](N)Cc2ccccc2)CSSC[C@@H](C(=O)N[C@H](CO)[C@@H](C)O)NC1=O [Octreotide, octreotide, reference compound] |  | liver weight (g/total body weight) [1]: slight increase |
| CC(C)C[C@H]1C(=O)N2CCC[C@H]2[C@]2(O)O[C@](NC(=O)[C@@H]3C=C4c5cccc6[nH]c(Br)c(c56)C[C@H]4N(C)C3)(C(C)C)C(=O)N12 [bromocriptine mesylate] |  | reduce growth hormone production and associated IGF-I sufficiently, % of cases [2]: 10% |
| 227449 (antisense eA*e[5mC]*eG*eA*e[5mC]*dA*d[5mC]*dT*dT*dG*dG*dT*dG*dA*dA*eT*e[5mC]*eG*eA*eG) [compound 227449] | 69 |  |
| 227458 (antisense eG*eT*eA*e[5mC]*eT*dG*dA*dA*dT*dT*dT*d[5mC]*dA*dT*dA*e[5mC]*eT*e[5mC]*e[5mC]*eA) [compound 227458] | 75 |  |
| C=CCN1C[C@H](C(=O)N(CCCN(C)C)C(=O)NCC)C[C@@H]2c3cccc4[nH]cc(c34)C[C@H]21 [cabergoline] |  | reduce growth hormone production and associated IGF-I sufficiently, % of cases [2]: 10% |
| 227496 (antisense eG*e[5mC]*eA*eT*eT*d[5mC]*dA*dA*dT*dT*dT*d[5mC]*d[5mC]*dT*dG*eA*eA*e[5mC]*eT*eG) [compound 227496] | 51 |  |
| 227476 (antisense eG*eT*eA*eA*eT*dT*dT*dT*d[5mC]*dT*dT*dG*dG*d[5mC]*dA*eG*eG*eG*e[5mC]*eG) [compound 227476] | 41 |  |
| 227491 (antisense eT*eA*eG*eG*eA*dA*dA*dG*dG*d[5mC]*dT*dA*d[5mC]*dT*dG*e[5mC]*eA*eT*eG*eA) [compound 227491] | 65 |  |
| 227448 (antisense eT*eT*eT*eG*e[5mC]*d[5mC]*dA*dA*dG*dA*dG*dT*dA*dG*d[5mC]*eT*eG*eG*eT*eG) [compound 227448] | 60 |  |
| 227508 (antisense eT*eT*e[5mC]*e[5mC]*eA*d[5mC]*dT*d[5mC]*dA*d[5mC]*d[5mC]*d[5mC]*d[5mC]*dA*dG*eT*eT*e[5mC]*eA*eT) [compound 227508] | 51 |  |
| 227507 (antisense eG*eT*e[5mC]*e[5mC]*eT*dT*dG*d[5mC]*dT*d[5mC]*d[5mC]*dA*dG*dG*dT*eT*eA*eG*e[5mC]*eA) [compound 227507] | 89 |  |
| TTACCGTATGGTTCCTCACT (chemistry not given here) [ISIS 260120, unrelated negative control oligonucleotide, reference compound] |  | effect on serum IGF-I at 30 mg/kg as observed with the mismatch oligonucleotide (serum IGF-I): not observed |
| 227451 (antisense eA*eT*eG*eA*eG*d[5mC]*dA*dA*dT*dT*d[5mC]*dT*dT*dG*d[5mC]*eA*eG*e[5mC]*eT*eT) [compound 227451] | 49 |  |
